Experimental data: the supplement of paper PMC10307832

Experiments:
Experiment in all cases: relative viability (nuclei count vs DMSO), 5 days (fraction); higher = more cells survive
201T = system: 201T
In short: (§1)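 Lung cancer cell lines, seeded in 1536-well plates, were treated the following day by pin tool with a single drug or with five library-drug doses (not always all listed) in √10 steps on top of a fixed anchor-drug dose. Cells were fixed and nuclei stained in one step after 5 days, and nuclei were counted. Relative viability is the nuclei count for treated wells divided by that for vehicle wells, reported as medians of duplicate plates.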

COR-L 105 = system: COR-L 105
In short: as §1

ChaGo-K-1 = system: ChaGo-K-1
In short: as §1

EKVX = system: EKVX
In short: as §1

H3255 = system: H3255
In short: as §1

HARA = system: HARA
In short: as §1

HCC-827 = system: HCC-827
In short: as §1

HOP-62 = system: HOP-62
In short: as §1

LCLC-103H = system: LCLC-103H
In short: as §1

LOU-NH91 = system: LOU-NH91
In short: as §1

NCI-H1975 = system: NCI-H1975
In short: as §1

NCI-H2126 = system: NCI-H2126
In short: as §1

NCI-H2228 = system: NCI-H2228
In short: as §1

NCI-H23 = system: NCI-H23
In short: as §1

NCI-H2405 = system: NCI-H2405
In short: as §1

NCI-H3122 = system: NCI-H3122
In short: as §1

NCI-H596 = system: NCI-H596
In short: as §1

NCI-H650 = system: NCI-H650
In short: as §1

NCI-H661 = system: NCI-H661
In short: as §1

NCI-H727 = system: NCI-H727
In short: as §1

PC-3 [JPC-3] = system: PC-3 [JPC-3]
In short: as §1

SK-LU-1 = system: SK-LU-1
In short: as §1

SW 900 = system: SW 900
In short: as §1

Molecule Cc1csc(=NC2CCCCC2)n1/N=C/c1ccc(O)c(O)c1O [MIM1] + N=C(N)NC(=N)NCCc1ccccc1 [Phenformin] (partner 250 µM) has a relative viability (201T; first compound 0.2 µM) of 0.456, a relative viability (201T; first compound 0.6325 µM) of 0.414 and a relative viability (201T; first compound 2 µM) of 0.451. It also gave a relative viability (201T; first compound 6.325 µM) of 0.345, a relative viability (201T; first compound 20 µM) of 0.321 and a relative viability (COR-L 105; first compound 0.2 µM) of 0.513. It also gave a relative viability (COR-L 105; first compound 0.6325 µM) of 0.461, a relative viability (COR-L 105; first compound 2 µM) of 0.404 and a relative viability (COR-L 105; first compound 6.325 µM) of 0.316. It also gave a relative viability (COR-L 105; first compound 20 µM) of 0.307, a relative viability (ChaGo-K-1; first compound 0.2 µM) of 0.521 and a relative viability (ChaGo-K-1; first compound 0.6325 µM) of 0.49. For the same molecule, the relative viability (ChaGo-K-1; first compound 2 µM) was 0.45, the relative viability (ChaGo-K-1; first compound 6.325 µM) was 0.227 and the relative viability (ChaGo-K-1; first compound 20 µM) was 0.171. The relative viability (EKVX; first compound 0.2 µM) was 0.253, the relative viability (EKVX; first compound 0.6325 µM) was 0.144 and the relative viability (EKVX; first compound 2 µM) was 0.213. It also gave a relative viability (EKVX; first compound 6.325 µM) of 0.209, a relative viability (EKVX; first compound 20 µM) of 0.198 and a relative viability (H3255; first compound 0.2 µM) of 0.33. For the same molecule, the relative viability (H3255; first compound 0.6325 µM) was 0.386, the relative viability (H3255; first compound 2 µM) was 0.379 and the relative viability (H3255; first compound 6.325 µM) was 0.402. It also gave a relative viability (H3255; first compound 20 µM) of 0.302, a relative viability (HARA; first compound 0.2 µM) of 0.455 and a relative viability (HARA; first compound 2 µM) of 0.49. For the same molecule, the relative viability (HARA; first compound 6.325 µM) was 0.16, the relative viability (HARA; first compound 20 µM) was 0.0907 and the relative viability (HCC-827; first compound 0.2 µM) was 0.412. The relative viability (HCC-827; first compound 0.6325 µM) was 0.377, the relative viability (HCC-827; first compound 2 µM) was 0.404 and the relative viability (HCC-827; first compound 6.325 µM) was 0.31. It also gave a relative viability (HCC-827; first compound 20 µM) of 0.13, a relative viability (HOP-62; first compound 0.2 µM) of 0.641 and a relative viability (HOP-62; first compound 0.6325 µM) of 0.603. For the same molecule, the relative viability (HOP-62; first compound 2 µM) was 0.624, the relative viability (HOP-62; first compound 6.325 µM) was 0.608 and the relative viability (HOP-62; first compound 20 µM) was 0.157. For the same molecule, the relative viability (LCLC-103H; first compound 0.2 µM) was 0.334, the relative viability (LCLC-103H; first compound 0.6325 µM) was 0.297 and the relative viability (LCLC-103H; first compound 2 µM) was 0.354. The relative viability (LCLC-103H; first compound 6.325 µM) was 0.334, the relative viability (LCLC-103H; first compound 20 µM) was 0.291 and the relative viability (LOU-NH91; first compound 0.2 µM) was 0.695. It also gave a relative viability (LOU-NH91; first compound 0.6325 µM) of 0.709, a relative viability (LOU-NH91; first compound 2 µM) of 0.625 and a relative viability (LOU-NH91; first compound 6.325 µM) of 0.548. The relative viability (LOU-NH91; first compound 20 µM) was 0.302, the relative viability (NCI-H1975; first compound 0.2 µM) was 0.432 and the relative viability (NCI-H1975; first compound 0.6325 µM) was 0.403. It also gave a relative viability (NCI-H1975; first compound 2 µM) of 0.39, a relative viability (NCI-H1975; first compound 6.325 µM) of 0.296 and a relative viability (NCI-H1975; first compound 20 µM) of 0.179. For the same molecule, the relative viability (NCI-H2126; first compound 0.2 µM) was 0.512, the relative viability (NCI-H2126; first compound 0.6325 µM) was 0.524 and the relative viability (NCI-H2126; first compound 2 µM) was 0.54. For the same molecule, the relative viability (NCI-H2126; first compound 6.325 µM) was 0.45, the relative viability (NCI-H2126; first compound 20 µM) was 0.391 and the relative viability (NCI-H2228; first compound 0.2 µM) was 0.389. The relative viability (NCI-H2228; first compound 0.6325 µM) was 0.272, the relative viability (NCI-H2228; first compound 2 µM) was 0.332 and the relative viability (NCI-H2228; first compound 6.325 µM) was 0.145. It also gave a relative viability (NCI-H2228; first compound 20 µM) of 0.0959, a relative viability (NCI-H23; first compound 0.2 µM) of 0.809 and a relative viability (NCI-H23; first compound 2 µM) of 0.711. It also gave a relative viability (NCI-H23; first compound 6.325 µM) of 0.598, a relative viability (NCI-H23; first compound 20 µM) of 0.2 and a relative viability (NCI-H2405; first compound 0.2 µM) of 0.402. It also gave a relative viability (NCI-H2405; first compound 0.6325 µM) of 0.375, a relative viability (NCI-H2405; first compound 2 µM) of 0.385 and a relative viability (NCI-H2405; first compound 6.325 µM) of 0.386. It also gave a relative viability (NCI-H2405; first compound 20 µM) of 0.371, a relative viability (NCI-H3122; first compound 0.2 µM) of 0.364 and a relative viability (NCI-H3122; first compound 0.6325 µM) of 0.371. For the same molecule, the relative viability (NCI-H3122; first compound 2 µM) was 0.355, the relative viability (NCI-H3122; first compound 6.325 µM) was 0.195 and the relative viability (NCI-H3122; first compound 20 µM) was 0.143. The relative viability (NCI-H596; first compound 0.2 µM) was 0.705, the relative viability (NCI-H596; first compound 0.6325 µM) was 0.829 and the relative viability (NCI-H596; first compound 2 µM) was 0.733. The relative viability (NCI-H596; first compound 6.325 µM) was 0.676, the relative viability (NCI-H596; first compound 20 µM) was 0.773 and the relative viability (NCI-H650; first compound 0.2 µM) was 0.477. For the same molecule, the relative viability (NCI-H650; first compound 0.6325 µM) was 0.389, the relative viability (NCI-H650; first compound 2 µM) was 0.474 and the relative viability (NCI-H650; first compound 6.325 µM) was 0.412. It also gave a relative viability (NCI-H650; first compound 20 µM) of 0.241, a relative viability (NCI-H661; first compound 0.2 µM) of 0.254 and a relative viability (NCI-H661; first compound 0.6325 µM) of 0.28. It also gave a relative viability (NCI-H661; first compound 2 µM) of 0.274, a relative viability (NCI-H661; first compound 6.325 µM) of 0.26 and a relative viability (NCI-H661; first compound 20 µM) of 0.24. The relative viability (NCI-H727; first compound 0.2 µM) was 0.513, the relative viability (NCI-H727; first compound 0.6325 µM) was 0.559 and the relative viability (NCI-H727; first compound 2 µM) was 0.481. For the same molecule, the relative viability (NCI-H727; first compound 6.325 µM) was 0.561, the relative viability (NCI-H727; first compound 20 µM) was 0.301 and the relative viability (PC-3 [JPC-3]; first compound 0.2 µM) was 0.458. It also gave a relative viability (PC-3 [JPC-3]; first compound 0.6325 µM) of 0.488, a relative viability (PC-3 [JPC-3]; first compound 2 µM) of 0.517 and a relative viability (PC-3 [JPC-3]; first compound 6.325 µM) of 0.469. For the same molecule, the relative viability (PC-3 [JPC-3]; first compound 20 µM) was 0.361, the relative viability (SK-LU-1; first compound 0.2 µM) was 0.533 and the relative viability (SK-LU-1; first compound 0.6325 µM) was 0.579. For the same molecule, the relative viability (SK-LU-1; first compound 2 µM) was 0.617, the relative viability (SK-LU-1; first compound 6.325 µM) was 0.405 and the relative viability (SK-LU-1; first compound 20 µM) was 0.393. For the same molecule, the relative viability (SW 900; first compound 0.2 µM) was 0.683, the relative viability (SW 900; first compound 0.6325 µM) was 0.712 and the relative viability (SW 900; first compound 2 µM) was 0.778. It also gave a relative viability (SW 900; first compound 6.325 µM) of 0.495 and a relative viability (SW 900; first compound 20 µM) of 0.176.
